Laboratory results as given in patent US5686486A, “4-hydroxy-benzopyran-2-ones and 4-hydroxy-cycloalkyl[b]pyran-2-ones useful to treat retroviral infections” (priority 1995, dated 1997).
“And” between values parts separate entries of the source, which are not always exact repeats. Equal entries are not always repeated. Where two headings read alike, the source gives them in different places.

What was measured:
[1] = target: T1, HIV-1 protease (Human immunodeficiency virus type 1 group M subtype B, UniProt P04585); assay: biochemical; conditions: for inhibition at 0.41 µM: read-out: HIV-1 Protease % Inhib, dose 0.410 uM; for inhibition at 1.23 µM: read-out: HIV-1 Protease % Inhib, dose 1.230 uM; for inhibition at 3.7 µM: read-out: HIV-1 Protease % Inhib, dose 3.700 uM; for inhibition at 11 µM: read-out: HIV-1 Protease % Inhib, dose 11.000 uM; for inhibition at 33 µM: read-out: HIV-1 Protease % Inhib, dose 33.000 uM; for inhibition at 100 µM: read-out: HIV-1 Protease % Inhib, dose 100.000 uM; for inhibition at 0.123 µM: read-out: HIV-1 Protease % Inhib, dose 0.123 uM; for inhibition at 0.37 µM: read-out: HIV-1 Protease % Inhib, dose 0.370 uM; for inhibition at 1.1 µM: read-out: HIV-1 Protease % Inhib, dose 1.100 uM; for inhibition at 3.3 µM: read-out: HIV-1 Protease % Inhib, dose 3.300 uM; for inhibition at 10 µM: read-out: HIV-1 Protease % Inhib, dose 10.000 uM; for inhibition at 30 µM: read-out: HIV-1 Protease % Inhib, dose 30.000 uM; for inhibition at 1 µM: read-out: HIV-1 Protease % Inhib, dose 1.000 uM
Method in brief: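 Biotinylated, FITC-labeled peptide substrate (20 μl of 0.2 μM) incubated with HIV-1 protease (10 μl of 0.1 μM) and compound in 0.1 M sodium acetate pH 5.5, 1.0 M NaCl, 0.05% NP-40, 1 h, room temperature, dark. Streptavidin beads then capture uncleaved substrate; filtered labeled product read by fluorescence, giving percent inhibition.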

[2] = target: T1, HIV-1 protease; assay: biochemical
Method: Determination of Ki values utilizes the same materials and equipment employed for percent inhibition studies. Two-fold serial dilutions are made for a given inhibitor from 2, 3 or 4 starting concentrations with a total of 24, 36 or 48 individual inhibitor concentrations. These dilutions are performed utilizing the BioMek robotics system. The assay consists of 10 μL of 40 nM HIV-1 protease, 10 μL of the various inhibitor concentrations, and 20 μL of 200 μM substrate (40 μL total). The reaction is allowed to proceed for 90 min at room temperature, terminated with 40 μL of avidin beads and processed (supra vide). An inhibitor with a known Ki is run in parallel to verify the validity of the assay. The data is processed utilizing a computer program employing a nonlinear least square analysis of the data to generate the Ki values.

| Compound | inhibition at 0.41 µM [1] [%] | inhibition at 1.23 µM [1] [%] | inhibition at 3.7 µM [1] [%] | inhibition at 11 µM [1] [%] | inhibition at 33 µM [1] [%] | inhibition at 100 µM [1] [%] | Ki ([2]; read-out: HIV-1 FITC KI) [nM] | inhibition at 0.123 µM [1] [%] | inhibition at 0.37 µM [1] [%] | inhibition at 1.1 µM [1] [%] | inhibition at 3.3 µM [1] [%] | inhibition at 10 µM [1] [%] | inhibition at 30 µM [1] [%] | inhibition at 1 µM [1] [%] | Ki ([2]; HIV-1 FITC KI) |
| --- | --- | --- | --- | --- | --- | --- | --- | --- | --- | --- | --- | --- | --- | --- | --- |
| O=C(Nc1cccc(C(c2c(O)c3c(oc2=O)CCCCCC3)C2CC2)c1)OCc1ccccc1 (stereo not drawn) [Example 119, Carbamic acid, [3-[cyclopropyl(5,6,7,8,9,10-hexahydro-4-hydroxy-2-oxo-2H-cycloocta[b]pyran-3-yl)methyl]phenyl]-, phenylmethyl ester] | 27.5 | 55.4 | 82.5 | 97.7 | 96.8 | 101 | 257 | – | – | – | – | – | – | – | – |
| CC(C)N=C(Nc1cccc(C(c2c(O)c3c(oc2=O)CCCCCC3)C2CC2)c1)NC(C)C (stereo not drawn) [Example 120, N-(3-(cyclopropyl-(4-hydroxy-2-oxo-5,6,7,8,9,10-hexahydro-2H-cycloocta[b]pyran-3-yl)-methyl)-phenyl)-N',N"-diisopropyl-guanidine] | < 10 | 22.2 | 54.6 | 80.7 | 101 | 106 | 982 | – | – | – | – | – | – | – | – |
| O=c1oc2c(c(O)c1C(c1ccccc1)C1CC1)CCCCCC2CC1CC1 (stereo not drawn) [Example 121, 10-Cyclopropylmethyl-3-(cyclopropyl-phenyl-methyl)-4-hydroxy-5,6,7,8,9,10-hexahydro-cycloocta[b]pyran-2-one] | – | – | – | – | – | – | 24 | 37.1 | 74.9 | 99.5 | 106 | 108 | 109 | – | – |
| CCC(c1ccccc1)c1c(O)c2c(oc1=O)C(Cc1ccccc1)CCCCC2 (stereo not drawn) [Example 122] | 35.1 | 63.5 | 91.7 | 98 | 93.2 | 94.3 | 175 | – | – | – | – | – | – | – | – |
| O=c1oc2c(c(O)c1C(C1CC1)C1CC1)CCCCCC2Cc1ccccc1 (stereo not drawn) [Example 123, 10-Benzyl-3-dicyclopropylmethyl-4-hydroxy-5,6,7,8,9,10-hexahydro-cycloocta[b]pyran-2-one] | 23.7 | 59.1 | 82.5 | 88.3 | 83.9 | 78.9 | 260 | – | – | – | – | – | – | – | – |
| CCC(c1ccccc1)c1c(O)c2c(oc1=O)C(CC1CC1)CCC2 (stereo not drawn) [Example 124, 8-Cyclopropylmethyl-4-hydroxy-3-(1-phenyl-propyl)-5,6,7,8-tetrahydro-chromen-2-one] | < 10 | 32.4 | 65.6 | 81.6 | 88.2 | 89.4 | 1040 | – | – | – | – | – | – | – | – |
| O=c1oc2c(c(O)c1C(c1ccccc1)C1CC1)CCCCC2CC1CC1 (stereo not drawn) [Example 125, 9-Cyclopropylmethyl-3-(cyclopropyl-phenyl-methyl)-4-hydroxy-6,7,8,9-tetrahydro-5-H-cyclohepta[b]pyran-2-one] | 101 | 108 | 108 | 108 | 102 | 105 | 24 | – | – | – | – | – | – | – | – |
| CCC(c1ccccc1)c1c(O)c2c(oc1=O)C(C)CCCCC2 (stereo not drawn) [Example 126, 4-Hydroxy-10-methyl-3-(1-phenyl-propyl)-5,6,7,8,9,10-hexahydro-cycloocta[b]pyran-2-one] | 25.9 | 59 | 89.8 | 96.7 | 100 | 95 | 331 | – | – | – | – | – | – | – | – |
| CCC1CCCCCc2c1oc(=O)c(C(c1ccccc1)C1CC1)c2O (stereo not drawn) [Example 127, 3-(Cyclopropyl-phenyl-methyl)-10-ethyl-4-hydroxy-5,6,7,8,9,10-hexahydro-cycloocta[b]pyran-2-one] | – | – | – | – | – | – | 33 | 52.3 | 92.5 | 112 | 115 | 117 | 111 | – | – |
| CCCC1CCCCCc2c1oc(=O)c(C(c1ccccc1)C1CC1)c2O (stereo not drawn) [Example 128, 3-(Cyclopropyl-phenyl-methyl)-4-hydroxy-10-propyl-5,6,7,8,9,10-hexahydro-cycloocta[b]pyran-2-one] | – | – | – | – | – | – | 26 | 32.5 | 85.6 | 102 | 112 | 107 | 102 | – | – |
| CCCCC1CCCCCc2c1oc(=O)c(C(c1ccccc1)C1CC1)c2O (stereo not drawn) [Example 129, 10-Butyl-3-(cyclopropyl-phenyl-methyl)4-hydroxy-5,6,7,8,9,10-hexahydro-cycloocta[b]pyran-2-one] | – | – | – | – | – | – | 31 | 23.2 | 67.8 | 96.5 | 106 | 117 | 120 | – | – |
| O=c1oc2c(c(O)c1C(c1ccccc1)C1CC1)CCCCCC2CC1CCCCO1 (stereo not drawn) [Example 130, 3-(Cyclopropyl-phenyl-methyl)-4-hydroxy-10-(tetrahydro-pyran-2-ylmethyl)-5,6,7,8,9,10-hexahydro-cycloocta[b]pyran-2-one] | – | – | – | – | – | – | 119 | – | 14.7 | 54 | 88.6 | 104 | 112 | – | – |
| CC(C)CC1CCCCCc2c1oc(=O)c(C(c1ccccc1)C1CC1)c2O (stereo not drawn) [Example 131, 3-(Cyclopropyl-phenyl-methyl)-4-hydroxy-10-isobutyl-5,6,7,8,9,10-hexahydro-cycloocta[b]pyran-2-one] | – | – | – | – | – | – | 30 | 30.7 | 74.2 | 98.7 | 112 | 116 | 106 | – | – |
| CC(C)CCC1CCCCCc2c1oc(=O)c(C(c1ccccc1)C1CC1)c2O (stereo not drawn) [Example 132, 3-(Cyclopropyl-phenylmethyl)-4-hydroxy-10-(3-methyl-butyl)-5,6,7,8,9,10-hexahydro-cycloocta[b]pyran-2-one] | – | – | – | – | – | – | 50 | – | 39.5 | 76.2 | 98.1 | 104 | 103 | – | – |
| O=c1oc2c(c(O)c1C(c1ccccc1)C1CC1)CCCCCC2CC1CCOC1 (stereo not drawn) [Example 133, 3-(Cyclopropyl-phenyl-methyl)-4-hydroxy-10-(tetrahydro-furan-3-ylmethyl)-5,6,7,8,9,10-hexahydro-cycloocta[b]pyran-2-one] | – | – | – | – | – | – | 12 | 19.1 | 71.2 | 97.9 | 101 | 101 | 99.5 | – | – |
| CCC(O)C1CCCCCc2c1oc(=O)c(C(c1ccccc1)C1CC1)c2O (stereo not drawn) [Example 134, 3-(Cyclopropyl-phenyl-methyl)-4-hydroxy-10-(1-hydroxy-propyl)-5,6,7,8,9,10-hexahydro-cycloocta[b]pyran-2-one] | – | – | – | – | – | – | 15 | 54 | 97.7 | 104 | 111 | 111 | 109 | – | – |
| C=CCCC1CCCCc2c1oc(=O)c(C(c1ccccc1)C1CC1)c2O (stereo not drawn) [Example 135, 9-But-3-enyl-3-(cyclopropyl-phenyl-methyl)4-hydroxy-6,7,8,9-tetrahydro-5H-cyclohepta[b]pyran-2-one] | 87.1 | 92.5 | 96.7 | 82.4 | 71.2 | 63.6 | 30 | – | – | – | – | – | – | – | – |
| O=c1oc2c(c(O)c1C(Cc1ccccc1)Cc1ccccc1)CCCCCC2 [Example 136, 3-(1-Benzyl-2-phenyl-ethyl)-4-hydroxy-5,6,7,8,9,10-hexahydro-cycloocta[b]pyran-2-one] | 56.6 | 80.1 | 90.1 | 92.4 | 91.6 | 103 | 108 | – | – | – | – | – | – | – | – |
| C=CS(=O)(=O)Nc1cccc(C(CC)c2c(O)c3ccccc3oc2=O)c1 (stereo not drawn) [Example 137, Ethenesulfonic acid (3-(1-(4-hydroxy-2-oxo-2H-chromen-3-yl)-propyl)-phenyl)-amide] | – | – | – | – | – | 89.1 | – | – | – | – | – | 62.9 | – | 11.3 | 1750 nM and 2200 nM |
| CCC(c1cccc(NS(=O)(=O)CC)c1)c1c(O)c2ccccc2oc1=O (stereo not drawn) [Example 138, Ethanesulfonic acid (3-(1-(4-hydroxy-2-oxo-2H-chromen-3-yl)-propyl)-phenyl)-amide] | – | – | – | – | – | 99.3 | – | – | – | – | – | 64.5 | – | 11.9 | 2350 nM |
